{
  "source": "patent US7321000B2",
  "about": "“Ophthalmic composition containing N-acetyl-cysteine for the treatment of dry-eye syndrome” (Farmigea S.p.A., priority 2001, dated 2008)",
  "assay": "Stability studies: autoclaving, colorimetric determination of N-AC",
  "format": "physicochemical",
  "conditions": "120° C., 20 min.; both in the presence and absence of benzalkonium chloride",
  "experimental": "The formulations underwent autoclaving (120° C., 20 min.): as highlighted in the prior art, N-acetyl-cysteine is degraded by about 30% (both in the presence and absence of benzalkonium chloride). It is, however, possible to carry out sterilisation by filtering through a 0.2 μm membrane, as was performed in the aforesaid examples.\nIn order to evaluate the stability of N-AC in the vehicle, it is not possible to use the HPLC method or ultraviolet spectrophotometry. The following calorimetric method was thus employed (Raggi M. A., Cavrini V. and Di Pietra A. M., Colorimetric determination of acetylcysteine, penicillamine and mercaptopropionylglycine in pharmaceutical dosage forms, J. Pharm. Sci., 71, 1384-1386 (1982)).\n0.163 g of acetylcysteine is dissolved in 500 ml of distilled H2O. By diluting in a proportion of 1:5, the required concentration is obtained.\nIncreasing volumes of this solution (1-5 ml) are placed in a 25 ml flask and then the following are added in succession:\nAfter 20 min the absorbance is measured at 515 nm by using as reference a control prepared at the same time as the sample.\nThe procedure described above was also applied to carry out the calibration of N-AC in the presence of DEAE-dextrane. For these samples, the measurement was carried out by using as reference a control containing the polymer and also a control without DEAE-dextrane.",
  "data": [
    {"molecule": "CC(=O)N[C@@H](CS)C(=O)O", "note": "[N-acetyl-cysteine]", "values": [
      {"measurement": "degradation of N-acetyl-cysteine on autoclaving", "value": "about 30%"}
    ]}
  ]
}
